Test results as given in patent publication US10793563B2, “GCN2 inhibitors and uses thereof” (Merck Patent GmbH, priority 2018, dated 2020).
Like-named read-outs stand apart in the source and are kept apart here.

Assays:
GCN2 kinase = GCN2 kinase (Homo sapiens (Human), UniProt Q9P2K8); assay: GCN2 Enzyme Inhibition Assay (Transcreener ADP2 fluorescence polarization); assay type: biochemical; details: 280 μM ATP, 200 μM (RS)7 peptide, 4 nM GCN2, 25° C.
How it was run: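 At 25 °C, GCN2 kinase (typical final concentration 4 nM) and (RS)7 peptide in Tris-HCl pH 7.5 buffer with MgCl2, NaCl and DTT were preincubated with compound for 10 min, then ATP was added for a 1 h reaction. ADP was read by FP with antibody/Alexa633 tracer. Non-linear tight-binding analysis gave IC50 and apparent Ki.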

[1] = biological target: intracellular GCN2 (phosphorylation of the GCN2 substrate eIF2α) (Homo sapiens (Human), UniProt Q9P2K8); assay: GCN2 Cellular Inhibition Assay (AlphaScreen SureFire P-eIF2α Ser51, borrelidin-treated U2OS cells); assay type: cell-based; details: 10 μM borrelidin, 1 h, phosphorylated eIF2α Ser51, read-out: GCN2 Biomarker (IC50)
Sequence of intracellular GCN2 (phosphorylation of the GCN2 substrate eIF2α) (Q9P2K8 whole entry): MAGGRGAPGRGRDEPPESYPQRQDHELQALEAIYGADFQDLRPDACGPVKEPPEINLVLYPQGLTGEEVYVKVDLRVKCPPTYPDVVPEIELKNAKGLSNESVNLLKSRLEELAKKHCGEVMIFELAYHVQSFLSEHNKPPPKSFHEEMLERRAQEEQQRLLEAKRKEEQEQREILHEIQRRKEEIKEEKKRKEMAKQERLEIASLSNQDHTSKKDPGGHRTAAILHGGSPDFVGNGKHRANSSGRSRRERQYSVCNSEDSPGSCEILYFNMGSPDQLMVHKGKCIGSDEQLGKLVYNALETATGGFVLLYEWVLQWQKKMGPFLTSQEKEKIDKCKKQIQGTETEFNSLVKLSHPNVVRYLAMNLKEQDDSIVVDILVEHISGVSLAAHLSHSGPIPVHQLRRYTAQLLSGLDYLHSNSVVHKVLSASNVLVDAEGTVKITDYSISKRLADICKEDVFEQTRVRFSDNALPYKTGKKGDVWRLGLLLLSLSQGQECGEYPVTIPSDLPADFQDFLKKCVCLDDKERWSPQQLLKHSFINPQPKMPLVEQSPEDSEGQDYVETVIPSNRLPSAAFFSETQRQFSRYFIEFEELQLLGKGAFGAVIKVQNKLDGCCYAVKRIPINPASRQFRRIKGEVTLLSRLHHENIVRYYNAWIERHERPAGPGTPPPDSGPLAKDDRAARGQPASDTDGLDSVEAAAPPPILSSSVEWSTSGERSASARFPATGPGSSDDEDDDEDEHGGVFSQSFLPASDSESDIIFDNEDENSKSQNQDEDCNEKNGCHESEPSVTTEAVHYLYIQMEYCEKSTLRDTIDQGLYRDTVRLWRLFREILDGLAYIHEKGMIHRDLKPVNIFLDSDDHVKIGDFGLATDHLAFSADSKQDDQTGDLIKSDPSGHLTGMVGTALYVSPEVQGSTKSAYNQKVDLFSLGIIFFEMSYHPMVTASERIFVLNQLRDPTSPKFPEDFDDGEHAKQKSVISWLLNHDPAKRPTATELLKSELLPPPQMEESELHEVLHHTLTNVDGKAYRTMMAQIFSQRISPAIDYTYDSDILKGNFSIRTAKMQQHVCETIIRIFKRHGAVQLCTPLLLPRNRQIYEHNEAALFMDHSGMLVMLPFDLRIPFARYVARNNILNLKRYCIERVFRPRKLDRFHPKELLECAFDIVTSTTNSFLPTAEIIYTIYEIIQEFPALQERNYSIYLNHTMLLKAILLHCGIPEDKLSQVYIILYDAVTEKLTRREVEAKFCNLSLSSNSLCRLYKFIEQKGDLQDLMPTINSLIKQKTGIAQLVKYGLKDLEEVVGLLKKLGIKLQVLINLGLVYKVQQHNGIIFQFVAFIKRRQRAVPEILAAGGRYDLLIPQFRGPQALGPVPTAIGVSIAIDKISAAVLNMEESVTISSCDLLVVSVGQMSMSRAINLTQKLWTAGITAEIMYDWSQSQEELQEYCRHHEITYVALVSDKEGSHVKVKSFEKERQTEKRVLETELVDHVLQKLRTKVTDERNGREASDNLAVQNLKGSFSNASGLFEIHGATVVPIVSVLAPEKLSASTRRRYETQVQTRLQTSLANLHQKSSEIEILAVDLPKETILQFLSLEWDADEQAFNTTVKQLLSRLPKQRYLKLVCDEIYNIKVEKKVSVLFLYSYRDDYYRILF
How it was run: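 Phospho-eIF2α (Ser51) measured by AlphaScreen SureFire in lysates of U2OS cells stimulated 1 h at 37 °C with 10 μM borrelidin alongside compound, 4-fold dilutions from 40 μM. Inhibition expressed as percent relative to borrelidin-alone controls.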

[2] = tested on: primary human pan T-cells; assay: Human IL-2 Assay for GCN2 Inhibition (IL-2 secretion from T cells in low amino acid condition); assay type: cell-based; details: IL-2 secretion from human T cells stimulated with anti-CD3/CD28 in low amino acid condition, ELISA; for EC50: read-out: IL2/T-cell EC50
Excerpt: Tumor microenvironment is profoundly immuno-suppressive. This may be attributed to the depletion of amino acids (like arginine and tryptophan) which triggers the activation of GCN2 in immune cells, including T cell and myeloid cells. In T cells, activation of GCN2 leads to reduce effector functions of CD8 T cells and induction and/or maintenance of immuno-suppressive T-regs. Inhibition of that immuno-suppressive response by GCN2 inhibitors enables an anti-cancer immune response by activating effector T-cells. Herein we describe an in-vitro system we established using human T-cells stimulated in low amino acid condition in order to engage the GCN2 biology. The method described involves the modulation of IL-2 levels secreted by human T cells in responses to the GCN2 inhibitors disclosed herein.
Amino acid-free RPMI was reconstituted with all but one of the amino acids found in standard RMPI (e.g. Arginine, Tryptophan), 10% charcoal-stripped fetal bovine serum, 100 Units/mL penicillin and 0.1 mg/mL streptomycin. Primary human pan T-cells were isolated using Pan T Cell Isolation Kit, human (MACS Miltenyi biotech Cat # Order no. 130-096-535) from apheresis cones and 5×104 pan T-cells per well. The purified T cells are seeded in Nunc™ 96-Well Polystyrene Round Bottom Microwell Plates (the cells are rested in No TRP media in a 15 ml falcon tube in the incubator for 30-45 minutes while titrations for tryptophan and the GCN2 inhibitor compound are made) A plate matrix was developed to titrate both a GCN2 inhibitor and the amino acid of interest ranging from “No Amino Acid” condition, up to the concentration found in the regular RPMI media (20 μM for TRP and 950 μM for Arginine). The cells were incubated for 30 min at 37° C. with the GCN2 inhibitor and then stimulated with 5×104 anti-CD3/CD28 Dynabeads® per well. After 96 hours of incubation the IL-2 level in the supernatant were measured using ELISA (R&D systems Cat # DY202 (Human IL-2 DuoSet ELISA). Data were plotted in GraphPad Prism software and EC50 is calculated.

Sequence of GCN2 kinase (Q9P2K8 whole entry): as above

Row | SMILES | IC50 (GCN2 kinase) | IC50 [1] | EC50 ([2]; Homo sapiens, T-cell, 96 h) | IL2/T-cell EC50 ([2]; 96 hours) | EC50 ([2]; 96 hours)
1 | C[C@H]1C[C@@H](N=S(C)(C)=O)CN(c2ccnc(-c3cnc4ccc(C(F)(F)F)cn34)n2)C1 (stereo in doubt) [I-123, Dimethyl(((3R,5S)-5-methyl-1-(2-(6-(trifluoromethyl)imidazo[1,2-a]pyridin-3-yl)pyrimidin-4-yl)piperidin-3-yl)imino)-λ6-sulfanone] | 10 to 100 nM | < 500 nM | > 500 nM | − (“−” for not active) | 
2 | C[C@@H]1C[C@H](c2cn[nH]c2)CN(c2nccc(-c3cnc4ccc(C(F)(F)F)cn34)n2)C1 [I-136, 3-(2-((3R,5R)-3-Methyl-5-(1H-pyrazol-4-yl)piperidin-1-yl)pyrimidin-4-yl)-6-(trifluoromethyl)imidazo[1,2-a]pyridine] |  | < 500 nM | < 100 nM |  | 100 to 500 nM
3 | C[C@H]1C[C@@H](c2cn[nH]c2)CN(c2nccc(-c3cnc4ccc(C(F)(F)F)cn34)n2)C1 [I-137, 3-(2-((3S,5S)-3-Methyl-5-(1H-pyrazol-4-yl)piperidin-1-yl)pyrimidin-4-yl)-6-(trifluoromethyl)imidazo[1,2-a]pyridine] |  | < 500 nM | 100 to 500 nM |  | 
4 | C[C@H]1[C@H](c2cn[nH]c2)N(CC2(C)COC2)CCN1c1ccnc(-c2cnc3ccc(C(F)(F)F)cn23)n1 [I-482, 3-(4-((2 S,3 S)-2-methyl-4-((3-methyloxetan-3-yl)methyl)-3-(1H-pyrazol-4-yl)piperazin-1-yl)pyrimidin-2-yl)-6-(trifluoromethyl)imidazo[1,2-a]pyridine] | 10 to 100 nM |  | > 500 nM |  | 
5 | C[C@@H]1C[C@@H](N=S(C)(C)=O)CN(c2ccnc(-c3cnc4ccc(C(F)F)cn34)n2)C1 [I-569, (((3R,5R)-1-(2-(6-(difluoromethyl)imidazo[1,2-a]pyridin-3-yl)pyrimidin-4-yl)-5-methylpiperidin-3-yl)imino)dimethyl-λ6-sulfanone] |  |  | 100 to 500 nM |  | 

The remaining lines, values ahead:

Row | IC50 (GCN2 kinase) | IC50 [1] | EC50 ([2]; Homo sapiens, T-cell, 96 h) | IL2/T-cell EC50 ([2]; 96 hours) | EC50 ([2]; 96 hours) | SMILES
6 | 10 to 100 nM | < 500 nM | > 500 nM |  |  | C[C@H]1C[C@@H](N=S(C)(C)=O)CN(c2ccnc(-c3cnc4ccc(Cl)cn34)n2)C1 (stereo in doubt) [I-128, (((3R,5S)-1-(2-(6-chloroimidazo[1,2-a]pyridin-3-yl)pyrimidin-4-yl)-5-methylpiperidin-3-yl)imino)dimethyl-λ6-sulfanone]
7 |  | 500 to 5000 nM | < 100 nM |  |  | Cc1[nH]ncc1[C@@H]1CN(c2nccc(-c3cnc4ccc(C(F)(F)F)cn34)n2)C[C@H](C)O1 [I-116]
8 | < 10 nM |  | 100 to 500 nM |  |  | Cc1n[nH]cc1C1CN(c2nccc(-c3cnc4ccc(Cl)cn34)n2)CC(C)O1 (centres unmarked) [I-160, 4-(4-(6-chloroimidazo[1,2-a]pyridin-3-yl)pyrimidin-2-yl)-2-methyl-6-(3-methyl-1H-pyrazol-4-yl)morpholine]
9 |  |  | < 100 nM |  |  | C[C@@H]1[C@H](c2cn[nH]c2)N(C2COC2)CCN1c1ccnc(-c2cnc3ccc(C(F)(F)F)cn23)n1 [I-565, 3-(4-((2R,3 S)-2-methyl-4-(oxetan-3-yl)-3-(1H-pyrazol-4-yl)piperazin-1-yl)pyrimidin-2-yl)-6-(trifluoromethyl)imidazo[1,2-a]pyridine]
10 |  |  | < 100 nM |  |  | C[C@@H]1CN(c2ccnc(-c3cnc4ccc(Cl)cn34)n2)C[C@H](c2cn[nH]c2)O1 [I-566, (2R,6S)-4-(2-(6-chloroimidazo[1,2-a]pyridin-3-yl)pyrimidin-4-yl)-2-methyl-6-(1H-pyrazol-4-yl)morpholine]
11 |  |  | < 100 nM |  |  | C[C@@H]1C[C@@H](c2cn[nH]c2)CN(c2ccnc(-c3cnc4ccc(C(F)(F)F)cn34)n2)C1 [I-567, 3-(4-((3R,5S)-3-methyl-5-(1H-pyrazol-4-yl)piperidin-1-yl)pyrimidin-2-yl)-6-(trifluoromethyl)imidazo[1,2-a]pyridine]
12 |  |  | 100 to 500 nM |  |  | C[C@H]1CN(c2ccnc(-c3cnc4cc(F)c(Cl)cn34)n2)C[C@@H](c2cn[nH]c2)O1 [I-568, (2S,6R)-4-(2-(6-chloro-7-fluoroimidazo[1,2-a]pyridin-3-yl)pyrimidin-4-yl)-2-methyl-6-(1H-pyrazol-4-yl)morpholine]
